The values below come from patent US10406120B2, “Methods and compositions for treating kidney disorders” (Golden Biotechnology Corporation, priority 2013, dated 2019).

Experiment [1] deals with IL-18. Briefly: AcP-IgAN model: serum IL-18 ELISA. It counts as in vivo, B cell-deficient mice. The following applies: AcP-IgAN mice, day 28, vs control AcP-IgAN mice. How it is done: (§1) B cell-deficient mice (B6.129S2-Igh-6tm1Cgn/J) were obtained from the Academia Sinica (Professor John T. Kung, Institute of Molecular Biology), and maintained at the animal center of the National Defense Medical Center, Taipei, Taiwan. AcP-IgAN was induced in the mice by daily injection of purified IgA anti-phosphorylcholine antibodies and pneumococcal C-polysaccharide (PnC) as described previously (Chao, et al., Kidney Int. 70:283-297; 2006). All animal experiments were performed with the approval of the Institutional Animal Care and Use Committee of The National Defense Medical Center, Taiwan, and were consistent with the NIH Guide for the Care and Use of Laboratory Animals.
(§2) Serum levels of IL-1β (eBiosceience, CA), IL-6 (eBiosceience), IL-18 (MBL, Japan), and MCP-1 (eBiosceience) were measured using commercial ELISA kits according to the manufacturer's instructions.

The test system of experiment [2] is TGF-β1. The experiment in a line: AcP-IgAN model: renal TGF-β1 mRNA and protein. It counts as in vivo, B cell-deficient mice. Particulars: AcP-IgAN mice. How it is done:
as §1
For IHC, formalin fixed and paraffin embedded tissue sections or frozen sections were incubated with against IL-6 (R&D Systems, MN), MCP-1 (Santa Cruz, Calif.), F4/80 (monocytes/macrophages; Serotec, N.C.), collagen IV (Southern Biotech, AL), TGF-β1 (Santa Cruz), phopsho-NFκB p65 (Cell Signaling, MA), CD3 (pan-T cell; Serotec), CD4 (T helper cell; BioLegend, CA), CD8 (cytotoxic T cell), CD11b (macrophages/neutrophils), or CD11c (dendritic cells) (BD Biosciences, CA) antibodies. The FITC-conjugated, Alexa Fluor 488-conjugated (Invitrogen, CA) or horseradish peroxidase (HRP) conjugated secondary antibodies (DAKO, Denmark) were then applied to the sections. Hematoxylin or 4′,6-diamidino-2-phenylindole (DAKO) was used in the counter staining for nuclei.
Total cortical kidney RNA was extracted with TriZOL reagents (Invitrogen) from cortical tissue of the kidney. For first-strand cDNA synthesis, 1.5 μg of total RNA was used in a single-round reverse transcriptase reaction. The reaction mixture consisted of 0.9 μl of Oligo (dT) 12 to 18 primer, 1.0 mM deoxyribonucleotide triphosphate (dNTP), 1 μl first strand buffer, 0.4 mM dithiothreitol, 80 U of RNaseout recombinant ribonuclease inhibitor, and 300 U of superscript II RNase H (Invitrogen). Real-time PCR was performed on an ABI Prism 7700 Sequence Detection System (Applied Biosystems, CA). […]

Experiment [3] deals with glutathione peroxidase (GPx). Briefly: AcP-IgAN model: renal GPx. It counts as in vivo, B cell-deficient mice. The following applies: AcP-IgAN mice. The method, then:
as §1
Nuclear proteins were extracted using a nuclear extract kit (Active Motif, Japan). Phospho-NF-κB p65 and nuclear factor-erythroid-2-related factor 2 (NrF2) were measured in renal tissue nuclear protein extracts using Trans-AM ELISA assay kits (Active Motif), according to the manufacturer's instructions. Renal cytosolic protein extracts using RIPA buffer (Cell signaling). Cytosolic glutathione peroxidase (GPx) (Cayman, Mich.) and cytosolic heme oxygenase-1 (HO-1) (Enzo Life Sciences, NY) were measured using commercial ELISA kits according to the manufacturer's instructions. Both were expressed relative to the protein concentration in the lysate.

Experiment [4] concerns IL-6. The experiment in a line: AcP-IgAN model: serum IL-6 ELISA. Particulars: AcP-IgAN mice. It counts as in vivo, B cell-deficient mice. The method, then:
as §1, §2

The subject of experiment [5] is superoxide anion. Briefly: FSGS model: superoxide anion / ROS determination (lucigenin, DHE). The following applies: FSGS mice. It counts as in vivo, BALB/c mice. The method, then:
Experiments described herein were performed on 8-week-old female BALB/c mice. The FSGS mice were injected intravenously with a single dose of adriamycin (0.1 mg/10 g body weight). The mice were given Compound 1 six hours before adriamycin injection by gavage daily till sacrifice. BALB/c mice intraperitoneal injected with normal saline were used as normal controls, while ASLN mice given vehicle (corn oil) by gavage were used as disease controls. Mice were killed at day 7, 14, or 21 after disease induction, and spleen, renal cortical tissue, and blood samples collected and stored appropriately until analysis. All animal experiments were performed with the ethical approval of the Institutional Animal Care and Use Committee of The National Defense Medical Center, Taiwan and performed according to the ethical rules in the NIH Guide for the Care and Use of Laboratory Animals.
Kidney in-situ superoxide anion production was determined by DHE labeling according to the known method. (Wu, et al., Nephrol Dial Transplant, 2008, 23: 3082-3090, or Ka, et al., J. Am. Soc. Nephrol. 2007, 18:2473-2485) Fluorescent images were quantified by counting the percentage of positive nuclei in the total nuclei per kidney cross section. Sera and kidney tissues were assessed for superoxide anion according to the known method. (Wu, et al., J Pineal Res, 2001, 30: 147-156, or Ka, et al., J. Am. Soc. Nephrol. 2007, 18:2473-2485) For ROS levels of serum, urine, and renal tissue, the samples were incubated with Krebs-HEPES buffer, and lucigenin (Sigma-Aldrich Chemical Co, MO) at 1.25 mM was used as substrate. Luminescence counts were obtained in duplicate at 15 sec intervals by a microplate luminometer (Hidex Microplate Luminometer, Finland), as previously described (Kretzler, et al.,. Virchows Arch, 425: 181-193, 1994). The superoxide anion activity was expressed as relative luminescence units (RLU) per 15 min per mg of organ dry weight (i.e., RUL/15 min/mg) or RLU/15 min/ml.

The conditions of experiment [6]: based on a previous study and empirical use (Chang et al. 2008); cited from earlier work.
[7] abbreviates: day 28, vs control AcP-IgAN mice.

Turning to `COC1=C(OC)[C@H](O)[C@H](C/C=C(\C)CC/C=C(\C)CCC=C(C)C)[C@@H](C)C1=O` [Compound 1, Antroquinonol], in experiment [1], the “serum IL-18 levels” value is listed as “substantial inhibition”. Moreover, the “renal mRNA levels of TGF-β1” value in experiment [2] (day 3) was “basal mRNA levels”. In experiment [2] (setting [7]), the “TGF-beta protein levels in kidney (IHC)” value is reported as “substantially inhibited” and the “renal mRNA expression of TGF-β1” value is on record as “greatly inhibited”. In addition, the “GPx expression levels in renal tissues” value in experiment [3] (day 3, vs control AcP-IgAN mice) is reported as “no difference”. In experiment [3] (setting [7]), the “GPx expression levels in renal tissues” value is recorded as “significantly higher”. For the same molecule, in experiment [4] (day 3, between control AcP-IgAN, AcP-IgAN+Antroq and normal control mice), the “serum IL-6 levels” value was “no difference”. Also, in experiment [4] (setting [7]), the “serum levels of IL-6” value was “substantially decreased”. Moreover, the “superoxide anion levels in urine” value in experiment [5] (day 7 to day 21, vs control FSGS mice) is recorded as “significantly lowered”. Further, the “serum superoxide anion levels” value in experiment [5] (day 7 to day 21, vs control FSGS mice, to a level similar to normal control) is recorded as “effectively attenuated”. In addition, the “in-situ ROS production in renal tissue (DHE fluorescence)” value in experiment [5] (day 14 and day 21) is “only very low DHE fluorescence”. The “superoxide anion levels in the kidney” value in experiment [5] (day 14 and day 21, vs control FSGS mice, to a level similar to normal control) is on record as “effectively attenuated”. For the same molecule, the effective range in experiment [6] is 10-50 mg/kg body weight.
